This is an account of results in patent US10988456B2, “O-aminoheteroaryl alkynyl-containing compound, preparation method therefor, and use thereof” (SHANGHAI INSTITUTE OF MATERIA MEDICA, CHINESE ACADEMY OF …, priority 2017, dated 2021).

Each structure is given as a SMILES string.

Test in all cases: Inhibition of receptor tyrosine kinase activity at molecular level (ELISA, Poly(Glu,Tyr)4:1 substrate phosphorylation)
Holding throughout (assay type): biochemical

The target of test [1] is RET (Homo sapiens, UniProt P07949). As to conditions: 10 nM compound; average of two independent experiments. Here is the method: (§1) Enzyme reaction substrate Poly(Glu, Tyr)4:1 was diluted with potassium-free PBS (10 mM sodium phosphate buffer, 150 mM NaCl, pH 7.2-7.4) to 20 μg/mL. […] The reaction was conducted under 37° C. for 12-16 hours. After the liquid was removed from the wells, the plate was washed three times with 200 μL/well of T-PBS (PBS containing 0.1% Tween-20), each for 5 minutes. The enzyme plate was dried in 37° C. dryer for 1-2 hours.
Chain of RET (P07949 29-1114): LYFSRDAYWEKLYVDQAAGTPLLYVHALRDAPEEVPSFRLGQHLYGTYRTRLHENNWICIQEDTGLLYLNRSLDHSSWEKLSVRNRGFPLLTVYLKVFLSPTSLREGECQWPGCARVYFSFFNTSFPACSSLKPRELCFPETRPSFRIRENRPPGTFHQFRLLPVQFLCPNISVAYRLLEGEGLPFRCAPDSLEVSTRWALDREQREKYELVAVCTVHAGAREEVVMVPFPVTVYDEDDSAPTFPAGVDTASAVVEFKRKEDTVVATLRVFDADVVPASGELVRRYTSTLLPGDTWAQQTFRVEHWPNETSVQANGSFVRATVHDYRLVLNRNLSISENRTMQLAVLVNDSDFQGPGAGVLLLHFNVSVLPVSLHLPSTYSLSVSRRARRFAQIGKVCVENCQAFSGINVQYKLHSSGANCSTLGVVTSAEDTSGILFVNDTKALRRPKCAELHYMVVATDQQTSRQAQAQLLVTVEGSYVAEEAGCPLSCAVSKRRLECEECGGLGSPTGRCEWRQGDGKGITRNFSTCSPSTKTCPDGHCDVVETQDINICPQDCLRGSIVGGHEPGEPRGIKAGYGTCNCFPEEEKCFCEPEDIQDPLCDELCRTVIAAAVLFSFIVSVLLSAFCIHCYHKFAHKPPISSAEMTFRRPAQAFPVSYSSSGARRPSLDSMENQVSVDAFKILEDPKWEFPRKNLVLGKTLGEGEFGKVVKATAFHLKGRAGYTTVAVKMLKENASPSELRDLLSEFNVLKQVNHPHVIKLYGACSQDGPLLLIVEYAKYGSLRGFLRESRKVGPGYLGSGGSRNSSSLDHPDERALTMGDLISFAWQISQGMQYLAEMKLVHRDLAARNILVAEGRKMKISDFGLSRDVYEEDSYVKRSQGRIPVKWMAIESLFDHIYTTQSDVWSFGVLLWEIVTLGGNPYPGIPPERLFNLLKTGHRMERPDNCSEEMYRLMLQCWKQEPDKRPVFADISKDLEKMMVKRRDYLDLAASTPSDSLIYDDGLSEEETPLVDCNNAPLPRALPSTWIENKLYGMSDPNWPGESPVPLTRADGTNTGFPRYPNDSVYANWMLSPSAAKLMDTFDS
(§2) 50 μL ATP solution diluted with buffer (50 mM HEPES pH 7.4, 50 mM MgCl2, 0.5 mM MnCl2, 0.2 mM Na3VO4, 1 mM DTT) to a final concentration of 5 μM was added into each well. The compound was diluted with DMSO to a suitable concentration (1 μL/well) or the well contained the corresponding concentration of DMSO (negative control well) Then various kinase recombinant proteins diluted with 49 μL of reaction buffer was added to initiate the reaction. Each experiment required duplicate enzyme-free control well. The reaction was carried out for 1 hour on a 37° C. Shaker (100 rpm). The plate was washed three times with T-PBS. A dilution of the primary antibody PY99 was added (100 μL/well), and the reaction was conducted in a shaker at 37° C. for 0.5 hr. The plate was washed three times with T-PBS. A dilution of the horseradish peroxidase-labeled goat anti-mouse IgG secondary antibody was added (100 μL/well), and the reaction was conducted in a shaker at 37° C. for 0.5 hour. Plate was washed with T-PBS for three times. 2 mg/mL OPD coloration solution (diluted with 0.1 M citric acid-sodium citrate buffer containing 0.03% H2O2 (pH=5.4)) was added (100 μL/well), reacted for 1-10 minutes at 25° C. in dark. The reaction was quenched with 2M H2SO4 (50 μL/well), and read at 490 nm using a tunable microplate reader SPECTRA MAX 190.
(§3) The inhibition ratio of the sample was determined by the following formula: […]
(§4) The IC50 values were obtained via four-parameter regression analysis using the software supplied with the microplate reader.

In test [2] the target is FGFR1 (Homo sapiens, UniProt P11362). As to conditions: for 10 nM inhibition ratio FGFR1: 10 nM compound, average of two independent experiments. Here is the method:
as §1, §2, §3, §4

In test [3] the target is KDR (Homo sapiens, UniProt P35968). To be noted: 10 nM compound; average of two independent experiments. As to the method: as §1, §2, §3, §4
Chain of KDR (P35968 20-1356): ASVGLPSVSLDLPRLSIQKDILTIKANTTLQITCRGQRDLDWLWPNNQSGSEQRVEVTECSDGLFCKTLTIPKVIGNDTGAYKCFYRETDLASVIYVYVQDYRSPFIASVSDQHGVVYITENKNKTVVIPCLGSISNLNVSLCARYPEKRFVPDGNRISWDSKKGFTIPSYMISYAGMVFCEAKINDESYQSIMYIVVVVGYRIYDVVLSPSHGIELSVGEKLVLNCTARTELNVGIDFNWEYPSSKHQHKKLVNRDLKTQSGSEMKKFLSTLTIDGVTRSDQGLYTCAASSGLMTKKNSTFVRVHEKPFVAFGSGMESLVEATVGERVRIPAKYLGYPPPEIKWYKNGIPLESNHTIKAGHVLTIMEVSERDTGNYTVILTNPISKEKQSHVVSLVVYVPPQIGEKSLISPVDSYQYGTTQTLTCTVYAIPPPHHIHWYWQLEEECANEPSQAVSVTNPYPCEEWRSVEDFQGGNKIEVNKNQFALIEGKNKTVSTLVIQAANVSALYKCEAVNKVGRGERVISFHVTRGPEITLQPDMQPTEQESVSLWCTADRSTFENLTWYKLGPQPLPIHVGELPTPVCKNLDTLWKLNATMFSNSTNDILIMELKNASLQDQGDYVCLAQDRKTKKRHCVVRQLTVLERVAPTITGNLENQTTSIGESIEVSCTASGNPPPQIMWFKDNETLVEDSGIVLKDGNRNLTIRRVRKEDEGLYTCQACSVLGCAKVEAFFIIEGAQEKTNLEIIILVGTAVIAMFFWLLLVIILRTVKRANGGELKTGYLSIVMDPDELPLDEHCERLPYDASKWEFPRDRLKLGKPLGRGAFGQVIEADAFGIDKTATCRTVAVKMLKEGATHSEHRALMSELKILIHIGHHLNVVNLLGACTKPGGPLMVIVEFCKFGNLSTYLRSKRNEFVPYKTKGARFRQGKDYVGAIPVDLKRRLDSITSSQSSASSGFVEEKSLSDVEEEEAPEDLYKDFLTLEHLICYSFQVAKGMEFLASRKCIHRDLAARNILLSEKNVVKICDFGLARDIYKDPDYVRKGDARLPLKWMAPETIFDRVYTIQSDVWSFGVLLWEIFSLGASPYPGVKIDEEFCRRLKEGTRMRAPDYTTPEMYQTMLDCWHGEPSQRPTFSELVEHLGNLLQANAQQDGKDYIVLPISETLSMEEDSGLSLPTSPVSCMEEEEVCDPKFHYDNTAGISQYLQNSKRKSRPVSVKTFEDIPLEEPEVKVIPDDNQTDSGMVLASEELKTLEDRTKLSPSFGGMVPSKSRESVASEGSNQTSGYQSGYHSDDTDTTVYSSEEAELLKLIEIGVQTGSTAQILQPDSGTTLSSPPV

Chain of FGFR1 (P11362 22-822): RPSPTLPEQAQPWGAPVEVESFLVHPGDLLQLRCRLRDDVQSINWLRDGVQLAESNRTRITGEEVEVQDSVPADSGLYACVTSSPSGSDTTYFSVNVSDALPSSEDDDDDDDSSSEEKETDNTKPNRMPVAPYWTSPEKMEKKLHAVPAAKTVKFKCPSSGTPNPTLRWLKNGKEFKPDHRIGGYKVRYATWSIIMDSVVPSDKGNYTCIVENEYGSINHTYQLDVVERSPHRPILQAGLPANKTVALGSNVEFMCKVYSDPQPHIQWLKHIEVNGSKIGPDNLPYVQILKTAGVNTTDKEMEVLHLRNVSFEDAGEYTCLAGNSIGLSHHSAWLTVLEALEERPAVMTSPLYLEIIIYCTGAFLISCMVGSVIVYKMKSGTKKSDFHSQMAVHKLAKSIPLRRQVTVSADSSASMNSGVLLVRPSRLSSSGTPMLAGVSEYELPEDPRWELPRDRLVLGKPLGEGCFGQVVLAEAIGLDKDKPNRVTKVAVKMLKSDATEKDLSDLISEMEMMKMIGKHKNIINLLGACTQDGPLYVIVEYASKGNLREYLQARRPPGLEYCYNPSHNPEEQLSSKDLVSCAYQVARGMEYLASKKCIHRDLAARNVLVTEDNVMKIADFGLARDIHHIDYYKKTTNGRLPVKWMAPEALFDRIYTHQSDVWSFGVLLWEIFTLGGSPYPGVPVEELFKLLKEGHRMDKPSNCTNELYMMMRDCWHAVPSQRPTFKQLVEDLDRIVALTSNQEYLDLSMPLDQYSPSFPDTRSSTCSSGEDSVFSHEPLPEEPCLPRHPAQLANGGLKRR

As to `CN1CCN(Cc2ccc(NC(=O)c3ccc(Cl)c(C#Cc4cc(C#N)cnc4N)c3)cc2C(F)(F)F)CC1` [Example 21], in test [1], the “10 nM inhibition ratio RET” value was 58.1. For the same compound, the “10 nM inhibition ratio FGFR1” value in test [2] is reported as 44.3. The “10 nM inhibition ratio KDR” value in test [3] amounted to 32.0.
Turning to `COc1cnc(N)c(C#Cc2cc(C(=O)Nc3ccc(CN4CCN(C)CC4)c(C(F)(F)F)c3)ccc2Cl)c1` [Example 22], the “10 nM inhibition ratio RET” value in test [1] is recorded as 59.3. Also, the “10 nM inhibition ratio FGFR1” value in test [2] was determined as 75.1. The “10 nM inhibition ratio KDR” value in test [3] is recorded as 24.9.
For `CN1CCN(Cc2ccc(NC(=O)c3ccc(Cl)c(C#Cc4cc(OC(F)(F)F)cnc4N)c3)cc2C(F)(F)F)CC1` [Example 23] the same measures were 60.0, 74.1 and 33.1.
For the compound `CN1CCN(Cc2ccc(NC(=O)c3ccc(Cl)c(C#Cc4cc(OC5CC5)cnc4N)c3)cc2C(F)(F)F)CC1` [Example 24], in test [1], the “10 nM inhibition ratio RET” value was found to be 66.1. Further, the “10 nM inhibition ratio FGFR1” value in test [2] was 64.1. Further, the “10 nM inhibition ratio KDR” value in test [3] is recorded as 23.5.
For `CN1CCN(Cc2ccc(NC(=O)c3ccc(Cl)c(C#Cc4cc(OC5COC5)cnc4N)c3)cc2C(F)(F)F)CC1` [Example 25] the same measures were 49.9, 54.5 and 33.2.
On the same counts, the results for `CN1CCN(Cc2ccc(NC(=O)c3ccc(Cl)c(C#Cc4cc(OCCO)cnc4N)c3)cc2C(F)(F)F)CC1` [Example 26] are 79.4, 77.2 and 24.3.
On the same counts, the results for `COCCOc1cnc(N)c(C#Cc2cc(C(=O)Nc3ccc(CN4CCN(C)CC4)c(C(F)(F)F)c3)ccc2Cl)c1` [Example 27] are 69.5, 78.2 and 34.1.
Take `CNCCOc1cnc(N)c(C#Cc2cc(C(=O)Nc3ccc(CN4CCN(C)CC4)c(C(F)(F)F)c3)ccc2Cl)c1` [Example 28]: in test [1], the “10 nM inhibition ratio RET” value is listed as 79.3. For the same compound, the “10 nM inhibition ratio FGFR1” value in test [2] is recorded as 68.5. Besides, the “10 nM inhibition ratio KDR” value in test [3] was determined as 28.7.
On the same counts, the results for `CN(C)CCOc1cnc(N)c(C#Cc2cc(C(=O)Nc3ccc(CN4CCN(C)CC4)c(C(F)(F)F)c3)ccc2Cl)c1` [Example 29] are 55.2, 44.9 and 14.3.
Turning to `CN1CCN(Cc2ccc(NC(=O)c3ccc(Cl)c(C#Cc4cc(CO)cnc4N)c3)cc2C(F)(F)F)CC1` [Example 30], the “10 nM inhibition ratio RET” value in test [1] is 77.8. In addition, the “10 nM inhibition ratio FGFR1” value in test [2] worked out at 55.2. Further, the “10 nM inhibition ratio KDR” value in test [3] was determined as 5.8.
For `COCc1cnc(N)c(C#Cc2cc(C(=O)Nc3ccc(CN4CCN(C)CC4)c(C(F)(F)F)c3)ccc2Cl)c1` [Example 31] the same measures were 67.8, 59.3 and 35.1.
For `CN1CCN(Cc2ccc(NC(=O)c3ccc(Cl)c(C#Cc4cc(COC(F)(F)F)cnc4N)c3)cc2C(F)(F)F)CC1` [Example 32] the same measures were 70.8, 66.3 and 37.2.
On the same counts, the results for `CNCc1cnc(N)c(C#Cc2cc(C(=O)Nc3ccc(CN4CCN(C)CC4)c(C(F)(F)F)c3)ccc2Cl)c1` [Example 33] are 77.8, 49.8 and 35.1.
For the compound `CN(C)Cc1cnc(N)c(C#Cc2cc(C(=O)Nc3ccc(CN4CCN(C)CC4)c(C(F)(F)F)c3)ccc2Cl)c1` [Example 34], the “10 nM inhibition ratio RET” value in test [1] was found to be 57.8. In addition, in test [2], the “10 nM inhibition ratio FGFR1” value was determined as 44.3. Moreover, the “10 nM inhibition ratio KDR” value in test [3] is 18.0.
Consider `CNc1cnc(N)c(C#Cc2cc(C(=O)Nc3ccc(CN4CCN(C)CC4)c(C(F)(F)F)c3)ccc2Cl)c1` [Example 35], for which, in test [1], the “10 nM inhibition ratio RET” value amounted to 44.3. Also, in test [2], the “10 nM inhibition ratio FGFR1” value was 57.9. In test [3], the “10 nM inhibition ratio KDR” value turned out to be 32.1.
On the same counts, the results for `CN1CCN(Cc2ccc(NC(=O)c3ccc(Cl)c(C#Cc4cc(N(C)C)cnc4N)c3)cc2C(F)(F)F)CC1` [Example 36] are 56.3, 49.9 and 12.1.
On the same counts, the results for `CC(=O)Nc1cnc(N)c(C#Cc2cccc(C(=O)Nc3ccc(CN4CCN(C)CC4)c(C(F)(F)F)c3)c2)c1` [Example 37] are 66.3, 48.1 and 33.2.
For `CN1CCN(Cc2ccc(NC(=O)c3cccc(C#Cc4cc(NC(=O)C5CC5)cnc4N)c3)cc2C(F)(F)F)CC1` [Example 38] the same measures were 65.3, 51.8 and 44.1.
For the compound `C=CC(=O)Nc1cnc(N)c(C#Cc2cc(C(=O)Nc3ccc(CN4CCN(C)CC4)c(C(F)(F)F)c3)ccc2Cl)c1` [Example 39], the “10 nM inhibition ratio RET” value in test [1] is reported as 88.0. In addition, in test [2], the “10 nM inhibition ratio FGFR1” value is listed as 53.4. The “10 nM inhibition ratio KDR” value in test [3] is 36.4.
`CN(C)CC=CC(=O)Nc1cnc(N)c(C#Cc2cc(C(=O)Nc3ccc(CN4CCN(C)CC4)c(C(F)(F)F)c3)ccc2Cl)c1` [Example 40]: the “10 nM inhibition ratio RET” value in test [1] worked out at 77.3. For the same compound, in test [2], the “10 nM inhibition ratio FGFR1” value came to 58.2. The “10 nM inhibition ratio KDR” value in test [3] came out at 36.6.
On the same counts, the results for `CN1CCC(Oc2ccc(NC(=O)c3ccc(Cl)c(C#Cc4cccnc4N)c3)cc2C(F)(F)F)CC1` [Example 41] are 77.3, 53.4 and 35.4.
As for `CN1CCN(Cc2ccc(NC(=O)c3ccc(Cl)c(C#Cc4nccnc4N)c3)cc2C(F)(F)F)CC1` [Example 46], in test [1], the “10 nM inhibition ratio RET” value is reported as 95.1. Further, in test [2], the “10 nM inhibition ratio FGFR1” value is 48.5. Further, the “10 nM inhibition ratio KDR” value in test [3] is listed as 43.1.
On the same counts, the results for `CN1CCN(Cc2ccc(NC(=O)c3cccc(C#Cc4nc(F)cnc4N)c3)cc2C(F)(F)F)CC1` [Example 47] are 89.1, 55.1 and 40.8.
On the same counts, the results for `CN1CCN(Cc2ccc(NC(=O)c3cccc(C#Cc4nc(CO)cnc4N)c3)cc2C(F)(F)F)CC1` [Example 48] are 78.0, 48.7 and 34.3.
For `CN1CCN(Cc2ccc(NC(=O)c3ccc(Cl)c(C#Cc4c(F)ccnc4N)c3)cc2C(F)(F)F)CC1` [Example 49] the same measures were 69.5, 77.1 and 33.2.
For `CC(C)(C)OC(=O)N1CCN(Cc2ccc(NC(=O)c3ccc(Cl)c(C#Cc4cccnc4N)c3)cc2C(F)(F)F)CC1` [Example 50], the “10 nM inhibition ratio RET” value in test [1] was determined as 55.1. Further, the “10 nM inhibition ratio FGFR1” value in test [2] stood at 56.3. The “10 nM inhibition ratio KDR” value in test [3] was found to be 27.8.
On the same counts, the results for `Nc1ncccc1C#Cc1cc(C(=O)Nc2ccc(CN3CCNCC3)c(C(F)(F)F)c2)ccc1Cl` [Example 51] are 79.4, 67.9 and 38.2.
For `CN1CCN(Cc2ccc(NC(=O)c3ccc(Cl)c(C#Cc4cccnc4N)c3)cc2C(F)(F)F)CC1.Cl` [Example 52] the same measures were 89.3, 75.2 and 40.2.
As to `[2H]C([2H])([2H])N1CCN(Cc2ccc(NC(=O)c3ccc(Cl)c(C#Cc4cccnc4N)c3)cc2C(F)(F)F)CC1` [Example 53], the “10 nM inhibition ratio RET” value in test [1] turned out to be 87.0. In addition, the “10 nM inhibition ratio FGFR1” value in test [2] amounted to 78.3. Besides, in test [3], the “10 nM inhibition ratio KDR” value came to 42.1.
For the compound `CNc1cncc(C#Cc2cc(C(=O)Nc3ccc(CN4CCN(C)CC4)c(C(F)(F)F)c3)ccc2C)c1` [Example A34, reference compound], in test [1], the “10 nM inhibition ratio RET” value worked out at 16.4. In test [2], the “10 nM inhibition ratio FGFR1” value is 33.2. Also, in test [3], the “10 nM inhibition ratio KDR” value was found to be 39.5.
As to `Cc1ncccc1C#Cc1cc(C(=O)Nc2ccc(CN3CCN(C)CC3)c(C(F)(F)F)c2)ccc1Cl` [HuFGFR143, reference compound], the “10 nM inhibition ratio RET” value in test [1] was 35.2. In addition, the “inhibition ratio FGFR1 (100 nM)” value in test [2] (100 nM compound) is listed as 19.9. Also, in test [3], the “10 nM inhibition ratio KDR” value is on record as 26.4.
